Data published in ChEMBL document CHEMBL1142260, “Acylguanidine inhibitors of beta-secretase: optimization of the pyrrole ring substituents extending into the S1' substrate binding pocket” (Bioorg Med Chem Lett, 2008).

Assays:
[1] = Selectivity for BACE1 over cathepsin D
Beta-secretase 1 [2] = target: T1, Beta-secretase 1 (Homo sapiens, UniProt P56817); experiment: Inhibition of BACE1
Beta-secretase 1 [3] = target: T1, Beta-secretase 1; conditions: CHO
CHO = experiment: Cytotoxicity against human CHO cells; format: functional; conditions: Cricetulus griseus, read-out: LD50 (the source's name)
Cathepsin D = Cathepsin D (Homo sapiens, UniProt P07339); experiment: Inhibition of cathepsin D
Beta-secretase 1 [4] = target: T1, Beta-secretase 1; experiment: Inhibition of BACE1 at 2 uM

T1 sequence (P56817 whole entry): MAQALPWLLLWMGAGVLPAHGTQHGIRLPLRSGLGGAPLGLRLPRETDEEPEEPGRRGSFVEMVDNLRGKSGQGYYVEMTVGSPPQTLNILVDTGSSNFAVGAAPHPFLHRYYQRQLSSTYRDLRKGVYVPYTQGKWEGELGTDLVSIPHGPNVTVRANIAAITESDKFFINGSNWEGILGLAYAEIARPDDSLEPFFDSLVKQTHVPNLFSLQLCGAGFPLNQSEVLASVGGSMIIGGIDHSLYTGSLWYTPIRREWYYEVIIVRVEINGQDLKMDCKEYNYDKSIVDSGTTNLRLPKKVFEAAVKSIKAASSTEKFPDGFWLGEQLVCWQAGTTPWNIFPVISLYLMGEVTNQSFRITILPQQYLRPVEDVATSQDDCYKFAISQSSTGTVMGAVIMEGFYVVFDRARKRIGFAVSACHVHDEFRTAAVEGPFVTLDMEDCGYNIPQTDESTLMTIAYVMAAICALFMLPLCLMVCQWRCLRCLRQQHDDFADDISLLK
Chain of Cathepsin D (P07339 65-162 limits assumed): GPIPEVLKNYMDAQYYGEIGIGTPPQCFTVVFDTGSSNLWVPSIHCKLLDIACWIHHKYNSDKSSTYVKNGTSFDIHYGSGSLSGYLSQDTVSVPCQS
Chain of Cathepsin D (P07339 169-412 limits assumed): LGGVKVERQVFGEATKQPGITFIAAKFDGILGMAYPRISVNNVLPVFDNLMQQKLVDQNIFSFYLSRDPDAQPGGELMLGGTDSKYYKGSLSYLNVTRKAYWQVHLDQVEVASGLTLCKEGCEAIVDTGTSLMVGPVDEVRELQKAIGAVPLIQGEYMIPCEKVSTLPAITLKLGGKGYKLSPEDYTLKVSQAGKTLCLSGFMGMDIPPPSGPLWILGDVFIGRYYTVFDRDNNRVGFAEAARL

| SMILES | Ratio IC50 [1] | IC50 (Beta-secretase 1 [2]) [µM] | ED50 (Beta-secretase 1 [3]) [µM] | CC50 (CHO) [µM] | IC50 (Cathepsin D) [µM] | inhibition (Beta-secretase 1 [4]) [%] |
| --- | --- | --- | --- | --- | --- | --- |
| N/C(=N/C(=O)Cn1c(-c2ccccc2)ccc1C12CC3CC(CC(C3)C1)C2)NCCO | 36 | 0.68 | 3.62 | 25 | 24.7 |  |
| Cc1nnc(CN/C(N)=N\C(=O)Cn2c(-c3ccccc3)ccc2C23CC4CC(CC(C4)C2)C3)o1 |  |  | 9.48 | 22 | 3.01 |  |
| CCCOc1ccc(-c2ccc(-c3ccccc3Cl)n2CC(=O)NC(=N)NCCCO)cc1 |  | 0.121 |  |  |  |  |
| CCCOc1ccc(-c2ccc(-c3ccccc3Cl)n2CC(=O)/N=C(/N)NCc2ccc(F)c(F)c2F)cc1 | 0.5 |  | 5.27 |  |  |  |
| N=C(NCCc1ccsc1)NC(=O)Cn1c(-c2ccccc2)ccc1C12CC3CC(CC(C3)C1)C2 |  |  |  |  | 0.599 |  |
| N#CCCCNC(=N)NC(=O)Cn1c(-c2ccccc2)ccc1C12CC3CC(CC(C3)C1)C2 |  | 0.255 |  |  | 4.25 |  |
| N/C(=N/C(=O)Cn1c(-c2ccccc2)ccc1C12CC3CC(CC(C3)C1)C2)NCCCO | 83 |  | 1.84 | 35 | 19.9 |  |
| N=C(NCc1cccc(N)c1)NC(=O)Cn1c(-c2ccccc2)ccc1C12CC3CC(CC(C3)C1)C2 |  | 0.744 |  |  | 1.38 |  |
| CCCOc1ccc(-c2ccc(-c3ccccc3Cl)n2CC(=O)/N=C(/N)NCC(C)(C)CO)cc1 | 15 | 0.203 | 5.27 |  |  |  |
| CCCOc1ccc(-c2ccc(-c3ccccc3Cl)n2CC(=O)/N=C(/N)N[C@H]2CC[C@H](C(=O)O)CC2)cc1 | 7.3 | 0.078 | 10.4 |  |  |  |
| N/C(=N/C(=O)Cn1c(-c2ccccc2)ccc1C12CC3CC(CC(C3)C1)C2)NCCCCO | 25 |  | 4.15 | 31 |  |  |
| CCCOc1ccc(-c2ccc(-c3ccccc3Cl)n2CC(=O)/N=C(/N)NCCCn2ccnc2)cc1 | 30 | 0.241 | 3.1 |  |  |  |
| N/C(=N/C(=O)Cn1c(-c2ccccc2)ccc1C12CC3CC(CC(C3)C1)C2)NCC(O)CO (centres undefined) | 137 |  | 21.1 | 88 |  |  |
| N/C(=N/C(=O)Cn1c(-c2ccccc2)ccc1C12CC3CC(CC(C3)C1)C2)N[C@H]1CC[C@H](O)CC1 |  | 0.283 | 1.44 | 14 |  |  |
| N/C(=N\C(=O)Cn1c(-c2ccccc2)ccc1C12CC3CC(CC(C3)C1)C2)NCCCCO |  | 0.255 |  |  | 6.45 |  |
| CCCOc1ccc(-c2ccc(-c3ccccc3Cl)n2CC(=O)/N=C(/N)NCC(O)CO)cc1 (centres undefined) | 81 | 0.124 | 5.27 |  |  |  |
| CCCOc1ccc(-c2ccc(-c3ccccc3Cl)n2CC(=O)/N=C(/N)NCCC2OCCO2)cc1 | 13 | 0.269 | 1.34 |  |  |  |
| NC(N)=NC(=O)Cn1c(-c2ccccc2)ccc1C12CC3CC(CC(C3)C1)C2 | 69 |  | 8.9 | > 25 | 25 |  |
| CCCOc1ccc(-c2ccc(-c3ccccc3Cl)n2CC(=O)/N=C(/N)NCc2cccs2)cc1 | 0.7 | 0.752 | 10.7 |  |  |  |
| CCCOc1ccc(-c2ccc(-c3ccccc3Cl)n2CC(=O)NC(=N)NCCC(=O)O)cc1 |  | 0.278 |  |  |  |  |
| N/C(=N/C(=O)Cn1c(-c2ccccc2)ccc1C12CC3CC(CC(C3)C1)C2)NCCc1cccs1 |  |  | 2 | 3 | 0.476 |  |
| N=C(NCCCn1ccnc1)NC(=O)Cn1c(-c2ccccc2)ccc1C12CC3CC(CC(C3)C1)C2 |  | 1.71 |  |  | > 25 |  |
| CCCOc1ccc(-c2ccc(-c3ccccc3Cl)n2CC(=O)NC(=N)NCCC(N)=O)cc1 |  | 0.172 |  |  |  |  |
| CCCOc1ccc(-c2ccc(-c3ccccc3Cl)n2CC(=O)/N=C(/N)NCCC(=O)O)cc1 | > 45 |  |  |  |  |  |

| SMILES | Ratio IC50 [1] | IC50 (Beta-secretase 1 [2]) [µM] | ED50 (Beta-secretase 1 [3]) [µM] | CC50 (CHO) [µM] | IC50 (Cathepsin D) [µM] | inhibition (Beta-secretase 1 [4]) [%] |
| --- | --- | --- | --- | --- | --- | --- |
| CCCOc1ccc(-c2ccc(-c3ccccc3Cl)n2CC(=O)NC(=N)NCc2ccco2)cc1 |  | 0.558 |  |  |  |  |
| CCCOc1ccc(-c2ccc(-c3ccccc3Cl)n2CC(=O)NC(=N)NCc2ccc(F)c(F)c2F)cc1 |  | 0.203 |  |  |  |  |
| N/C(=N/C(=O)Cn1c(-c2ccccc2)ccc1C12CC3CC(CC(C3)C1)C2)NC1CCCCC1 | 7.5 |  | 18.7 | 50 |  |  |
| N/C(=N/C(=O)Cn1c(-c2ccccc2)ccc1C12CC3CC(CC(C3)C1)C2)NCCCn1ccnc1 | > 15 |  | 9.16 | 45 |  |  |
| C[C@H](O)CNC(=N)NC(=O)Cn1c(-c2ccccc2)ccc1C12CC3CC(CC(C3)C1)C2 |  | 0.942 |  |  | 54.1 |  |
| N#CCCCN/C(N)=N\C(=O)Cn1c(-c2ccccc2)ccc1C12CC3CC(CC(C3)C1)C2 | 17 |  | 4.4 | 59 |  |  |
| CCCOc1ccc(-c2ccc(-c3ccccc3Cl)n2CC(=O)/N=C(/N)NCCCC(N)=O)cc1 | 70 | 0.137 | 4.14 |  |  |  |
| CCCOc1ccc(-c2ccc(-c3ccccc3Cl)n2CC(=O)/N=C(/N)NCCCC(=O)O)cc1 | 45 | 0.13 |  |  |  |  |
| N#CCCN/C(N)=N\C(=O)Cn1c(-c2ccccc2)ccc1C12CC3CC(CC(C3)C1)C2 | 39 | 0.31 | 3.44 | 16 | 12.2 |  |
| Cc1csc(CN/C(N)=N\C(=O)Cn2c(-c3ccccc3)ccc2C23CC4CC(CC(C4)C2)C3)n1 |  |  | 3.97 | 8 |  |  |
| CCCOc1ccc(-c2ccc(-c3ccccc3Cl)n2CC(=O)/N=C(/N)N[C@H]2CC[C@H](O)CC2)cc1 | 110 | 0.125 | 1.28 |  |  |  |
| Cc1csc(CNC(=N)NC(=O)Cn2c(-c3ccccc3)ccc2C23CC4CC(CC(C4)C2)C3)n1 |  |  |  |  | 0.144 |  |
| CCCOc1ccc(-c2ccc(-c3ccccc3Cl)n2CC(=O)/N=C(/N)NCCCSC)cc1 | 3.9 | 0.321 | 1.23 |  |  |  |
| C[C@@H](O)CN/C(N)=N\C(=O)Cn1c(-c2ccccc2)ccc1C12CC3CC(CC(C3)C1)C2 | 28 | 0.437 | 9.51 | 79 | 12.5 |  |
| N=C(NCC(O)CO)NC(=O)Cn1c(-c2ccccc2)ccc1C12CC3CC(CC(C3)C1)C2 (centres undefined) |  | 0.536 |  |  | 73.5 |  |
| CCCOc1ccc(-c2ccc(-c3ccccc3Cl)n2CC(=O)/N=C(/N)NCCC(N)=O)cc1 | 55 |  |  |  |  |  |
| N/C(=N/C(=O)Cn1c(-c2ccccc2)ccc1C12CC3CC(CC(C3)C1)C2)NCc1cccc(N)c1 | 1.9 |  | 4.81 | 8 |  |  |
| N/C(=N\C(=O)Cn1c(-c2ccccc2)ccc1-c1ccccc1)NCc1ccc(F)c(F)c1F |  |  |  |  |  | 43 |
| CCCOc1ccc(-c2ccc(-c3ccccc3Cl)n2CC(=O)/N=C(/N)NCc2ccco2)cc1 | 2.5 |  | 9.1 |  |  |  |
| CCCOc1ccc(-c2ccc(-c3ccccc3Cl)n2CC(=O)/N=C(/N)NCCCO)cc1 | 85 |  | 1.18 |  |  |  |
| CCCOc1ccc(-c2ccc(-c3ccccc3Cl)n2CC(=O)/N=C(/N)NCc2ccc(O)c(OC)c2)cc1 | 1 | 0.651 | 5.45 |  |  |  |
| N/C(=N/C(=O)Cn1c(-c2ccccc2)ccc1C12CC3CC(CC(C3)C1)C2)NCCc1ccsc1 |  |  | 1.69 | 2 |  |  |
| N=C(NC(=O)Cn1c(-c2ccccc2)ccc1C12CC3CC(CC(C3)C1)C2)NC1CCCCC1 |  | 7.2 |  |  | 54.2 |  |
| C[C@H](O)CN/C(N)=N\C(=O)Cn1c(-c2ccccc2)ccc1C12CC3CC(CC(C3)C1)C2 | 57 |  | 17.8 | 100 |  |  |
